Data reported in ChEMBL document CHEMBL4680232, “Discovery of small molecules targeting GRP78 for antiangiogenic and anticancer therapy” (Eur J Med Chem, 2020).
Activity calls are given as the source filed them. The calls are words filed in the database; no cut-off is given here.

Experiments:
[1] = target: Endoplasmic reticulum chaperone BiP (Homo sapiens) (UniProt P11021); experiment: Binding affinity to human GRP78 at 1 uM measured after 30 mins by UF-ASMS analysis relative to control
[2] = system: HUVEC; experiment: Antiangiogenic activity against VEGF-stimulated HUVEC assessed as reduction in cell viability up to 100 uM measured after 48 hrs by MTT assay; assay type: functional, cell-based; conditions: Homo sapiens, dose microM <=100, time 48.0 hrs
[3] = system: HUVEC; experiment: Antiangiogenic activity against VEGF-stimulated HUVEC assessed as reduction in cell viability at 100 uM measured after 48 hrs by MTT assay relative to control; assay type: functional
[4] = system: HUVEC; experiment: Antiangiogenic activity against VEGF-stimulated HUVEC assessed as reduction in cell viability measured after 48 hrs by MTT assay; assay type: functional, cell-based; conditions: Homo sapiens
[5] = system: HUVEC; experiment: Antiangiogenic activity against VEGF-stimulated HUVEC assessed as reduction in cell viability at 10 uM measured after 48 hrs by MTT assay relative to control; assay type: functional
[6] = system: 786-0; experiment: Cytotoxicity against human 786-0 cells assessed reduction in cell viability after 48 hrs by MTT assay; assay type: functional
[7] = system: 786-0; experiment: Cytotoxicity against human 786-0 cells assessed reduction in cell viability at 10 uM after 48 hrs by MTT assay; assay type: functional, cell-based
[8] = target: Endoplasmic reticulum chaperone BiP (Homo sapiens) (UniProt P11021); conditions: dose 500.0 µM
Description: Binding affinity to N-terminal His-tagged GRP78 (unknown origin) assessed as change in melting temperature at 500 uM by differential scanning fluorimetry

[9] = system: 786-0; experiment: Cytotoxicity against human 786-0 cells assessed reduction in cell viability at 100 uM after 48 hrs by MTT assay; assay type: functional, cell-based

Endoplasmic reticulum chaperone BiP (Homo sapiens), sequence (P11021 whole entry): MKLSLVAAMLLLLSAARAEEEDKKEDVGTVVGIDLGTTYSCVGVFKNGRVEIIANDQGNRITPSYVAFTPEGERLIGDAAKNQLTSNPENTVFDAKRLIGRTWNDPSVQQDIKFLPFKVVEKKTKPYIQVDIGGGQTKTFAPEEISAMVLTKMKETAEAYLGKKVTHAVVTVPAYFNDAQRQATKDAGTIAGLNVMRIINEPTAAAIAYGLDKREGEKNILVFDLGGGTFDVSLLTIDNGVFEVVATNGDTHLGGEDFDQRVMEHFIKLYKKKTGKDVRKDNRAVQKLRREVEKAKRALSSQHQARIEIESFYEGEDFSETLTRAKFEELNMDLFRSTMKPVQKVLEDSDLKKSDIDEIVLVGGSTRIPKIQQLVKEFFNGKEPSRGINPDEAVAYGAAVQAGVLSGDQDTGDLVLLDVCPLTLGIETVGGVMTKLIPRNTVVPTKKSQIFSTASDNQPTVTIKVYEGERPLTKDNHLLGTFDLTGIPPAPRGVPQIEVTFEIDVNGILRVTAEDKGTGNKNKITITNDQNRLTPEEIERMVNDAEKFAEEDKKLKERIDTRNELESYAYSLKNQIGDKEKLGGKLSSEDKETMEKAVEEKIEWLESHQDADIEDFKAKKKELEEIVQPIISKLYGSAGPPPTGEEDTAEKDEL

## O=C(O[C@@H]1Cc2c(O)cc(O)cc2O[C@@H]1c1cc(O)c(O)c(O)c1)c1cc(O)c(O)c(O)c1
[1]
  RBA: 271%
[2]
  Activity: inactive

## CCOS(=O)(=O)/C=C/c1ccc(OC)c(OCCc2nc(-c3ccccc3)sc2C)c1
[1]
  RBA: 129%

## CC(C)CNC(=O)c1c(-c2ccc(COC(=O)c3cc(O)cc(O)c3)cc2)oc2ccccc12
[3]; Homo sapiens
  Activity: Active
[4]; time 48 hrs
  CC50: 100 µM

## CCCCNC(=O)c1c(-c2ccc(COC(=O)c3ccc(O)cc3)cc2)oc2ccccc12
[3]; Homo sapiens
  Activity: Active
[4]; time 48 hrs
  CC50: 100 µM

## O=c1[nH]c2ccc(OCCc3ccccc3)nc2[nH]c1=O
[1]
  RBA: 536%

## CC(C)CNC(=O)c1c(-c2ccc(COC(=O)c3ccc(N(C)C)cc3)cc2)oc2ccccc12
[3]
  Activity: 50%
[1]
  RBA: 54%
[5]; Homo sapiens
  Activity: inactive
[4]; time 48 hrs
  CC50: 100 µM

## CC(C)CNC(=O)c1c(-c2ccc(COC(=O)c3ccc(O)cc3)cc2)oc2ccccc12
[3]; Homo sapiens
  Activity: Active
[4]; time 48 hrs
  CC50: 100 µM

## CC(C)CNC(=O)c1c(-c2ccc(COC(=O)c3ccccc3)cc2)oc2ccccc12
[3]; Homo sapiens
  Activity: Active
[4]; time 48 hrs
  CC50: 100 µM

## CC(C)CNC(=O)c1cccc2nc(-c3ccc(COC(=O)Cc4ccc(O)cc4)cc3)oc12
[6]
  CC50: 10 µM
[3]; Homo sapiens
  Activity: Active
[4]; time 48 hrs
  CC50: 10 µM

## Nc1ccc2[nH]c(=O)c(=O)[nH]c2c1
[1]
  RBA: 119%

## CC(C)CNC(=O)c1c(-c2ccc(COC(=O)Cc3ccc(O)cc3)cc2)oc2ccccc12
[3]; Homo sapiens
  Activity: Active
[4]; time 48 hrs
  CC50: 100 µM

## O=C(/C=C/c1ccc(O)c(O)c1)OCCc1ccccc1
[1]
  RBA: 98%

## COc1cc(OC)cc(C(=O)OCc2ccc(-c3nc4cccc(C(=O)NCC(C)C)c4o3)cc2)c1
[4]
  CC50: inactive

## COC(=O)c1c(-c2ccc(COC(=O)c3cc(O)cc(O)c3)cc2)oc2ccccc12
[7]
  Activity: inactive
[3]; Homo sapiens
  Activity: Active
[8]
  ΔTm: -0.76 °C
[4]; time 48 hrs
  CC50: 10 µM
[9]
  Activity: Active

## COc1ccc(OC)c(/C=C(\C#N)c2ccc(-c3oc4ccccc4c3C(=O)NCC(C)C)cc2)c1
[4]; time 48 hrs
  CC50: 100 µM

## CC(C)CNC(=O)c1c(-c2ccc(COc3ccc(CO)cc3)cc2)oc2ccccc12
[6]
  CC50: 10 µM
[3]; Homo sapiens
  Activity: Active
[4]; time 48 hrs
  CC50: 10 µM

## O=c1[nH]c2nccc(OCCc3ccccc3)c2[nH]c1=O
[1]
  RBA: 1000%

## COc1ccc(/C=C/C(=O)OCCc2ccccc2)cc1
[1]
  RBA: 64%

## Nc1ncnc2c1ncn2[C@@H]1O[C@H](COP(=O)(O)OP(=O)(O)OP(=O)(O)O)[C@@H](O)[C@H]1O
[8]
  ΔTm: 4.65 °C

## CC(=O)Nc1ccc(OCc2ccc(-c3oc4ccccc4c3C(=O)NCC(C)C)cc2)cc1
[1]
  RBA: 61%
[5]
  Activity: 50%
[4]; time 48 hrs
  CC50: 10 µM

## CC(C)CNC(=O)c1c(-c2ccc(COC(=O)/C=C/c3ccc(O)cc3)cc2)oc2ccccc12
[3]; Homo sapiens
  Activity: Active
[4]; time 48 hrs
  CC50: 100 µM

## C=CCc1ccc(O)c(-c2ccc(O)c(CC=C)c2)c1
[3]; Homo sapiens
  Activity: Active

## Cc1oc(-c2ccccc2)nc1CCOc1cccc2oc(CCC(=O)O)nc12
[1]
  RBA: 160%

## CC(C)CNC(=O)c1c(-c2ccc(COC(=O)c3ccccc3O)cc2)oc2ccccc12
[1]
  RBA: 501%
[5]
  Activity: 50%
[4]; time 48 hrs
  CC50: 10 µM

## COc1cc(OC)cc(C(=O)OCc2ccc(-c3oc4ccccc4c3C(=O)NCC(C)C)cc2)c1
[6]
  CC50: 10 µM
[1]
  RBA: 143%
[5]
  Activity: 50%
[8]
  ΔTm: 2.65 °C
[4]; 48 h
  EC50: 1.51 µM
[4]; time 48 hrs
  CC50: 10 µM

## CC(C)CNC(=O)c1c(-c2ccc(CO)cc2)oc2ccccc12
[1]
  RBA: 180%
[2]
  Activity: inactive
[4]
  CC50: inactive

## O=C(/C=C/c1ccc(O)c(O)c1)OCCc1ccc(Br)cc1
[3]
  Activity: 50%
[1]
  RBA: 90%
[5]; Homo sapiens
  Activity: inactive
